Experimental data: patent publication US8697738B2, “Alpha-aminoamide derivatives useful in the treatment of addictive disorders” (Newron Pharmaceuticals S.p.A., priority 2004, dated 2014)
“Also recorded” adds a separate entry of the source.

Columns and labels:
[1] = test system: patients with idiopathic RLS; assay: Open label RLS study, 2 week administration in 10 patients with idiopathic RLS; assay type: in vivo, human
Method: In an open label study conducted on 10 patients with idiopathic RLS, 2 week administration of (S)-(+)-2-[4-(3-Fluorobenzyloxy)-benzylamino]-propanamide 100 mg/die resulted efficacious in improving RLS symptoms. Patients were included in the study if they fulfilled the minimal diagnostic criteria according to the International RLS Study Group. Patients' symptoms had to interfere with sleep onset or maintenance for at least 6 months and at least 15 nights during the last 12 weeks, and they should have IRLS 10(International Restless Legs Syndrome) score equal to or greater than 15 at baseline assessment. Physical examination, biochemical and haematological laboratory tests and electrocardiogram were performed to ensure that selection criteria were fulfilled. Polysomnography was performed for 2 nights at baseline and 2 nights at the end of treatment, in order to verify the effects of (S)-(+)-2-[4-(3-Fluorobenzyloxy)benzylamino]propanamide on sleep. Efficacy was measured through the following evaluation scales: International Restless Legs Syndrome 10 (IRLS 10), Restless Legs Syndrome Quality of Life (RLS QoL), Work Productivity and Activity Impairment Questionnaire (WPAI RLS) and Clinical Global Impression (CGI part I and CGI part II).
Ten out of 10 patients enrolled were considered eligible for the efficacy analysis: ail of them completed the planned period of treatment of 14+3 days. […] As to the main disease, it was considered severe in 70% of patients according to CGI criteria and confirmed by IRLS-10 score, with an impact on daily activity, that could be quantified (according to WPAI-RLS, and RLS-QoLQ results) in about ⅓ of the usual performances.

[2] = test system: cocaine-induced hyperactivity; assay: Cocaine interaction study in mice (cocaine-induced locomotion increase); assay type: in vivo, Swiss-Webster Mice; conditions: 100 mg/kg ip, cocaine 20 mg/kg ip
Source text: Typically, psychostimulant addictive drugs as amphetamine and cocaine induce an increase in locomotor activity in rodents and primate. Some compounds with anti-addictive potential properties can prevent the increase in locomotor activity induced by psychostimulant drugs. (Katz J L, Kopajtic T A, Myers K A, Mitkus R J, Chider M, Behavioral effects of cocaine: interactions with D1 dopaminergic antagonists and agonists in mice and squirrel monkeys. J Pharmacol Exp Ther. 1999 October; 291(1):265-79).
The effect of test compounds is evaluated in a mice model of cocaine-induced locomotion increase.
Subjects: Swiss-Webster Mice, Male
Apparatus: Automated Photocell Chambers
Drugs: Cocaine 20 mg/kg is administered ip, test compounds dissolved in vehicle are administered ip at different doses (10-100 mg/kg) right before cocaine.
Behavioral test; Animals (8 per experimental group) received ip injection of cocaine (20 mg/kg) or saline and either the test compounds (10-100 mg/kg ip) or their vehicle and locomotor activity is recorded for 1 hour. […]
Maximal effect: The 30 min time period in which cocaine (20 mg/kg) produces the maximal activity is used to determine test compound effect. […] The AD50 (dose that attenuates cocaine-induced stimulation by 50%) is determined from the linear regression analysis.

cocaine detoxification = conditions: rats and human; cited from earlier work
smoking cessation = conditions: 200 mg/day; from 17 to 30%; cited from earlier work
alcohol dependence = conditions: clinical study; cited from earlier work
[3] = 100 mg/die, 2 weeks, 10 patients

C[C@H](NCc1ccc(OCc2cccc(F)c2)cc1)C(N)=O [(S)-(+)-2-[4-(3-Fluorobenzyloxy)-benzylamino]propanamide]
improvement of RLS symptoms ([1]; 100 mg/die, 2 week administration, 10 patients): efficacious; also recorded: significant improvement
adverse events [1, 3]: no adverse events
tolerability [1, 3]: well tolerated
CGI part II changes from previous visit: Minimally Improved ([1]; Final visit): 5 (50) N (%)
CGI part II changes from previous visit: Much Improved ([1]; Final visit): 2 (20) N (%)
CGI part II changes from previous visit: No change ([1]; Final visit): 1 (10) N (%)
CGI part II changes from previous visit: Very Much Improved ([1]; Final visit): 2 (20) N (%)
IRLS 10 Score, Impact, Mean ([1]; Final visit (baseline 4.20)): 3.00
IRLS 10 Score, Associate Features, mean ([1]; Final visit (baseline 5.10)): 4.30
IRLS 10 Score, Severity, mean ([1]; Final visit (baseline 7.00)): 6.00
IRLS 10 Score, Diagnostic Features, mean ([1]; Final visit (baseline 11.20)): 8.50
IRLS 10 Score, Total Score, mean ([1]; Final visit (baseline 27.50)): 21.80
IRLS 10 Score, Diagnostic Features, changes ([1]; Final vs Baseline, p 0.002): −2.70
IRLS 10 Score, Total Score, changes ([1]; Final vs Baseline, p 0.002): −5.70
IRLS 10 Score, Impact, changes ([1]; Final vs Baseline, p 0.003): −1.20
IRLS 10 Score, Severity, changes ([1]; Final vs Baseline, p 0.063): −1.00
IRLS 10 Score, Associate Features, changes ([1]; Final vs Baseline, p 0.070): −0.80
CGI part I: patients with stable disease ([1]; after 2 weeks): 40%
CGI part II: patients with improvement of any grading ([1]; after 2 weeks): 90%
CGI part II: patients with no changes ([1]; after 2 weeks): 10%
WPAI-RLS item 6 impairment of daily activities ([1]; after 2 weeks (from 34% at baseline), p=0.005, FIG. 3): 22%
Polysomnographic registration: PLM (Wake+Sleep) Index ([1]; after 2 weeks versus baseline, FIG. 4): statistically significant improvement versus baseline
Polysomnographic registration: PLM Sleep Index ([1]; after 2 weeks versus baseline, FIG. 5): statistically significant improvement versus baseline
Polysomnographic registration: PLM Wake Index ([1]; after 2 weeks versus baseline, FIG. 6): statistically significant improvement versus baseline
RLS-QoLQ total score ([1]; after 2 weeks vs baseline, p=0.002, FIG. 2): significant decrease
CGI part I: patients with improvement in disease situation ([1]; after 2 weeks, P=0,031): 60%
IRLS-10 scale total score, result in words ([1]; after 2 weeks, p=0.002): statistically significant improvement
safety profile ([1]; conclusion of the trial): good safety profile
effect on cocaine-induced hyperactivity (total locomotor activity) [2]: significantly decreased

C#CCN(C)[C@H](C)Cc1ccccc1 [Selegeline, selegiline, reference compound]
effect on cocaine-induced hyperactivity (total locomotor activity) [2]: did not reverse
anti-reinforcing effect during cocaine detoxification (cocaine detoxification): moderate anti-reinforcing effect

NCCNC(=O)c1ccc(Cl)cn1 [lazabemide]
percentage of smoking cessation (smoking cessation): 30%

CC1(C)O[C@@H]2[C@@H](CO[C@@]3(COS(N)(=O)=O)OC(C)(C)O[C@@H]23)O1 [topiramate]
efficacy in the treatment of alcohol dependence (alcohol dependence): efficacious
